According to US20080293777A1, “Weight Loss Treatment” (priority 2007, published 2008):
Where a name gives a salt, the structure may show the parent alone.

What was measured:
[1] = Weight change in leptin-deficient (ob/ob) mice; format: in vivo; conditions: for weight change: PO BID for 7 days, FIG. 3
Procedure: To investigate Compound 1's effect on various metabolic disorders including diabetes and obesity, in vivo studies were conducted in the ob/ob obese mouse model and in the db/db diabetic model. The ob/ob mouse is deficient in the hormone leptin, a 16 kDa protein that is secreted by fat cells and plays a key role in regulating energy intake and energy expenditure, including the regulation of appetite and metabolism. […] Compound 1 was tested in these metabolic disease models along with two anti-diabetic drugs that also affect body weight, metformin hydrochloride and rosiglitazone maleate.
Male BKS.Cg-m+/+Leprdb/J (˜5 weeks of age) and B6.V-Lepob/J mice (˜8 weeks of age) were used for in vivo efficacy studies. Mice were housed 4 per cage and acclimated for 10 days prior to the start of the study. […] Mice were weighed each morning just prior to dosing. Mice were fasted overnight between study day 1 and 2 and blood glucose was measured in the morning of day 2 using a glucometer and blood from a tail nick. Food was returned to the mice ad libitum and the mice were again fasted overnight between study day 3 and 4, 5 and 6, and 7 and 8.

[2] = cited from earlier work
[3] = molecular target: T1, PTP-1B (wild type, residues 1-298) (Homo sapiens, UniProt P18031); assay: PTP-1B activity assay with pNPP, with or without DTT added afterwards; format: biochemical; conditions: FIG. 1
T1 construct: PTP-1B (wild type, residues 1-298) was exchanged into DFTN buffer
T1 sequence (P18031 1-298): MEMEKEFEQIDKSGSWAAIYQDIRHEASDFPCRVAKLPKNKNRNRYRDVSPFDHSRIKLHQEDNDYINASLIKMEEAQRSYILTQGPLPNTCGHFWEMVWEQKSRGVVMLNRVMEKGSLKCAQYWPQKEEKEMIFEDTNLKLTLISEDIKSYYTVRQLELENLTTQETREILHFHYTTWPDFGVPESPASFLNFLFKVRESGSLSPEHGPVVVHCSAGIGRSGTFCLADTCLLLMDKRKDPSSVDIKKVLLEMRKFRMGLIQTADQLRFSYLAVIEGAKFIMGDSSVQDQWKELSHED
Procedure: (§1) PTP-1B (wild type, residues 1-298) was exchanged into DFTN buffer (DTT-free, 50 mM Tris, 100 mM NaCl, 1 mM EDTA, pH 7.4) using a NAP-5 column, and the concentration of protein was quantified using the absorbance at 280 nm. Purity of the PTP-1B was evidenced by a single mass peak (mass=34,672 amu in a mass spectrometer).
(§2) To 99 mL solution of 1.0 μM PTP-1B in buffer was added 1 mL of Compound 1 in DMSO […]. After 15 minutes, each Compound 1-treated PTP-1B sample was evaluated by mass spectrometry (QSTAR protein mass spectrometer with Baynesian protein mass deconvolution). Concurrently, two 10 μL aliquots were removed. One aliquot was diluted with 10 μL DFTN buffer while the other aliquot was diluted with 10 μL TN buffer (1 mM DTT, 50 mM Tris, 100 mM NaCl, 1 mM EDTA, pH 7.4). After 15 minutes, the samples were diluted with 90 μL pNPP solution (5.6 mM pNPP in DFTN) and the A405 of the solution was monitored for 5 minutes.

[4] = molecular target: T1, PTP-1B (wild type, residues 1-298); assay: Mass spectrometry of PTP-1B treated with Compound 1; format: binding; conditions: 1 equivalent of Compound 1 for 15 minutes, FIG. 2
Procedure: as §1, §2

[5] = Weight change in db/db mice (mutation mapped to leptin receptor); format: in vivo; conditions: FIG. 4
Procedure: To investigate Compound 1's effect on various metabolic disorders including diabetes and obesity, in vivo studies were conducted in the ob/ob obese mouse model and in the db/db diabetic model. The ob/ob mouse is deficient in the hormone leptin, a 16 kDa protein that is secreted by fat cells and plays a key role in regulating energy intake and energy expenditure, including the regulation of appetite and metabolism. Leptin-deficient mice are severely obese and develop diabetes but revert to normal weight upon leptin administration. In the second model, the mice have a genetic mutation mapped to the leptin receptor (db/db) and at the time of the experiment were moderately overweight. Compound 1 was tested in these metabolic disease models along with two anti-diabetic drugs that also affect body weight, metformin hydrochloride and rosiglitazone maleate.
Male BKS.Cg-m+/+Leprdb/J (˜5 weeks of age) and B6.V-Lepob/J mice (˜8 weeks of age) were used for in vivo efficacy studies. Mice were housed 4 per cage and acclimated for 10 days prior to the start of the study. […] Mice were fasted overnight between study day 1 and 2 and blood glucose was measured in the morning of day 2 using a glucometer and blood from a tail nick. […]

Row | Compound | difference in weight loss between doses ([1]; 20 mg/kg vs 100 mg/kg Compound 1 dosed orally BID) | weight change [1] | cell permeability ([2]; data from clinical trials) | bioavailability of the selenium moiety ([2]; human, in vivo) | oral bioavailability ([2]; humans, clinical trials) | tolerability ([2]; humans, clinical trials) | toxicity ([2]; up to 500 mg/day oral dose in humans) | relative activity of PTP-1B ([3]; 0-2 equivalents of Compound 1, 15 minutes) | reversibility of covalent inhibition of PTP-1B ([3]; upon addition of a reducing agent such as DTT) | covalent modification of PTP-1B (mass spectrum) [4] | statistical significance of weight gains [5]
1 | O=c1c2ccccc2[se]n1-c1ccccc1 [Compound 1, 2-phenyl-1,2-benzisoselenazol-3(2H)-one] | No significant difference in weight loss | promoted weight loss | cell-permeable | not bioavailable | orally bioavailable | well tolerated | no toxicity was observed | inhibits the activity | reversible | covalently modifies | 
2 | CN(C)C(=N)N=C(N)N [metformin, metformin hydrochloride, reference compound] |  | promoted weight loss |  |  |  |  |  |  |  |  | 
3 | CN(CCOc1ccc(CC2SC(=O)NC2=O)cc1)c1ccccn1.O=C(O)/C=C\C(=O)O (stereo not shown) [rosiglitazone, rosiglitazone maleate, reference compound] |  | gained weight |  |  |  |  |  |  |  |  | except for the rosiglitazone-treated mice, the weight gains were not statistically significant
